From patent US20230219951A1, “PYRIDINE-PYRIMIDINE DERIVATIVE, PREPARATION METHOD THEREFOR AND PHARMACEUTICAL USE THEREOF” (Jiangsu Hengrui Pharmaceuticals Co., Ltd., priority 2020, published 2023)

What was measured:
[1] = Pharmacokinetic evaluation in nude mice; format: in vivo; settings: female, mouse, plasma, po, BALB/C nude mice, intragastric administration, 50 mg/kg
Protocol: (§1) The drug concentration in the plasma of the test animals (nude mice) at different time points after intragastric administration (i.g.) of compound 18-p1 was determined by using an LC/MS/MS method. The pharmacokinetic behavior of the compound of the present disclosure in nude mice was studied and its pharmacokinetic profile was evaluated.
Nine BALB/C nude mice, female, intragastric administration, purchased from Beijing Vital River Laboratory Animal Technology Co., Ltd., with animal production license number of SCXK (Shanghai) 2017-0005.
An amount of compound 18-p1 was weighed, dissolved in 0.5% by volume of CMCNa, and then prepared into a 2.5 mg/mL clear solution with 99.5% normal saline.
The nude mice were intragastrically administered at a dose of 50.0 mg/kg and a volume of 20.0 mL/kg.
(§2) The compound 18-p1 was administered intragastrically to nude mice, and 0.1 mL of blood was collected from the orbit before administration and 0.25 h, 0.5 h, 1.0 h, 2.0 h, 4.0 h, 6.0 h, 8.0 h, 11.0 h and 24.0 h after administration. The blood was placed in an EDTA-K2 anticoagulation tube and centrifuged at 10,000 rpm for 1 min (4° C.), and plasma was separated out within 1 h and then stored at −20° C. for testing. The process from blood sampling to centrifugation was performed under an ice bath.
The content of the test compounds at different concentrations in plasma of nude mice after administration was determined: 25 μL of plasma of nude mice at each time point after administration was taken, and 200 μL of acetonitrile (containing 50 μL of internal standard solution camptothecin, 100 ng/mL) was added; the mixture was vortexed for 5 min, and centrifuged for 10 min (4000 r/min). 0.5 μL of supernatant was taken from the plasma sample for LC/MS/MS analysis.

[2] = Pharmacokinetic evaluation in mice; format: in vivo; settings: female, mouse, plasma, po, C57 mice, intragastric administration, 2 mg/kg
Protocol: as §1, with “(mice)” for “(nude mice)”, “in” for “in nude”
Nine C57 mice, female, purchased from Beijing Vital River Laboratory Animal Technology Co., Ltd., with animal production license number of SOCK (Shanghai) 2017-0005.
An amount of compound 18-p1 was weighed, dissolved with 5% by volume of DMSO and 5% tween 80 (Shanghai Titan Scientific Co., Ltd.), and then prepared into a 0.1 mg/mL clear solution with 90% normal saline.
Intragastric administration: the mice were intragastrically administered at a dose of 2.0 mg/kg and a volume of 20.0 mL/kg.
as §2, with “to” for “to nude”
The content of the test compounds at different concentrations in plasma of mice after administration was determined: 10 μL of plasma of mice at each time point after administration was taken, and 200 μL of methanol (containing an internal standard solution camptothecin, 100 ng/mL) was added; the mixture was vortexed for 1 min, and centrifuged for 10 min (18,000 r/min). 3 μL of supernatant was taken from the plasma sample for LC/MS/MS analysis.

[3] = tested on: H358 cells; experiment: Inhibition of proliferation of H358 cells (CellTiter-Glo 3D); format: cell-based; settings: Homo sapiens, NCI-H358, low adsorption plate, 120 h
Summary of the method: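 H358 cells at 1500/well in low-adsorption plates (RPMI, 10% FBS), centrifuged and grown overnight, then exposed 120 h at 37 °C to 9 concentrations, 5-fold dilutions from 10 μM; 0.1% DMSO blank. Luminescence read with CellTiter-Glo 3D; IC50 calculated from the curves.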

[4] = read-out: Apparent distribution volume Vz/F
[5] = read-out: Area under curve AUC0-t
[6] = read-out: Half-life T½ (converted)
[7] = read-out: Plasma concentration Cmax

## Cc1nc(N[C@H](C)c2cccc(C(F)F)c2F)c2cc([C@]3(O)CC[C@@H](O)CC3)c(=O)[nH]c2n1 [Example 18-p1, 4-(((R)-1-(3-(difluoromethyl)-2-fluorophenyl)ethyl)amino)-6-((1s,4S)-1,4-dihydroxycyclohexyl)-2-methylpyrido[2,3-d]pyrimidin-7(8H)-one]
[1]; [4]
  Vd/F: 16.6 L/kg
[1]; [5]
  AUC(0-t): 5150 ng·h/mL
[1]; read-out: Clearance CLz/F
  CL/F: 160 mL/min/kg
[1]; [6]
  half-life: 1.2 h
[1]; [7]
  Cmax: 1560 ng/mL
[2]; [4]
  Vd/F: 23.4 L/kg
[2]; [5]
  AUC(0-t): 146 ng·h/mL
[2]; read-out: Clearance CLz/F
  CL/F: 225 mL/min/kg
[2]; [6]
  half-life: 1.2 h
[2]; [7]
  Cmax: 56.7 ng/mL
[3]
  IC50: 72 nM
